Assay results as given in US20240016781A1, “TREATMENT OF KRAS MUTANT CANCERS” (MEI Pharma, Inc., priority 2020, published 2024).
Like-named read-outs stand apart in the source and are kept apart here.

Experiments:
[1] = test system: cancer cell lines with KRAS mutations (G12A, G12C, G12D, G12S, G12V, G13C, G13D, Q61H); test: MTS and Cell Titer Glo growth assays in ~20 KRAS mutant cancer cell lines; assay type: cell-based; settings: ~20 cancer cell lines with KRAS mutations
Method: (§1) Voruciclib is an oral inhibitor of CDKs 9, 4, 6, and 1 currently being tested in Phase 1B clinical trials for B-cell malignancies and acute myeloid leukemia. Voruciclib inhibition of CDK9 leads to decreased expression of transcriptional targets of RNA Pol II, such as Mcl1 and MYC. To test whether Voruciclib could be effective in cancers driven by dysregulated KRAS-MYC signaling, ˜20 cancer cell lines with KRAS mutations (G12A, G12C, G12D, G12S, G12V, G13C, G13D, Q61H) were treated in preclinical studies with Voruciclib. MTS and Cell Titer Glo assays were used to monitor growth in vitro. […] To investigate MYC protein stability, MIA PACA-2 (G12C) cells were treated with 4 μM Voruciclib for 5-240 min, followed by SDS-PAGE and Western Blotting analysis with α-MYC and α-pSer62-MYC antibodies. […] A 60% decrease in pSer62 was observed after 5 min that reached 80% by 60 min. […] The ability of Voruciclib to inhibit tumor growth in vivo was also tested in murine xenograft models. KRAS mutant human cancer cells HCT-116 (CRC, KRAS G13D), SW-480 (CRC, KRAS G12V), and H-460 (NSCLC, KRAS Q61H) were injected subcutaneously into SCID mice. Once tumors reached 5-10 mm in diameter, Voruciclib or vehicle were administered orally at 50, 100, or 200 mg/kg OD for 11-14 days. Tumors were measured every 2-3 days, and growth inhibition relative to control was calculated. […]

HCT-116 (CRC, KRAS G13D) = test: Murine xenograft tumor growth inhibition, HCT-116; assay type: in vivo, SCID mice; settings: HCT-116 xenograft; orally 50, 100, or 200 mg/kg OD for 11-14 days; all doses
Method: as §1

SW-480 (CRC, KRAS G12V) = test: Murine xenograft tumor growth inhibition, SW-480; assay type: in vivo, SCID mice; settings: SW-480 xenograft; orally 50, 100, or 200 mg/kg OD for 11-14 days; all doses
Method: as §1

MIA PaCa-2 xenografts = test: CIVO intratumoral microinjection, MIA PaCa-2 xenografts; assay type: in vivo; settings: MIA PaCa-2 PDAC tumors
From the text: Replicate Tumors: n≥5. Time Point: 24 hr. Cell Line; MIA PaCa-2. Biomarker: CC3, H&E.
The original paraffin embedded fixed tumor blocks were sliced and stained for MCL-1 and total MYC using antibodies specific to each. The MYC staining is in red. The MCL-1 staining is in yellow. The nuclei are stained in blue. For MYC and MCL-1, a decrease in the signal indicates an on-target effect of VOR.

[2] = PK of voruciclib, daily dosing continuously (Table 4); assay type: in vivo; settings: human, plasma, oral; for Vd/F: read-out: Vz/F; for half-life: read-out: t½ (converted); for Tmax: median
From the text: (§2) Voruciclib half life is designated as t½ in the tables (expressed in hours).
(§3) Voruciclib volume of distribution is designated as Vz/F (expressed in liters).

[3] = test system: Venetoclax Sensitive and Resistant Cell Lines; test: Voruciclib + venetoclax synergy in venetoclax sensitive and resistant cell lines; assay type: cell-based
From the text: FIG. 4A: Ven Sensitive; FIG. 4B: Ven Resistant.

clinical = settings: human, in vivo
From the text: as §2, §3

[4] = SCID, mouse, in vivo, po, 100 mg/kg
Method: Animals were randomized into 2 groups when tumors reached 100 mm diameter. Group A assigned single dosing. […] Drug concentration was measured in tumor and plasma after last dose at the following time points: 0, 4, 8, 24, 48, 72 hrs. […] Concentration of voruciclib in plasma is in units of μg/ml and in μg/g for tumors.

MYC protein in AML cells = settings: 3 hr; cited from earlier work
[5] = 75 mg, Day 1, daily dosing continuously, mean
[6] = 75 mg, Day 15, daily dosing continuously, mean
[7] = 150 mg, Day 1, daily dosing continuously, mean
[8] = 150 mg, Day 15, daily dosing continuously, n = 1
[9] = 250 mg, Day 1, daily dosing continuously, mean
[10] = 250 mg, Day 15, daily dosing continuously, mean
[11] = 350 mg, Day 1, daily dosing continuously, mean
[12] = 350 mg, Day 15, daily dosing continuously, mean
[13] = 500 mg, Day 1, daily dosing continuously, mean
[14] = 500 mg, Day 15, daily dosing continuously, mean

CN1CC[C@@H](c2c(O)cc(O)c3c(=O)cc(-c4ccc(C(F)(F)F)cc4Cl)oc23)[C@@H]1CO [Voruciclib, (+)-trans-2-(2-Chloro-4-trifluoromethylphenyl)-5,7-dihydroxy-8-(2-hydroxymethyl-1-methylpyrrolidin-3-yl)-chromen-4-one]
viability (growth in vitro) [1]: decreased viability in all cell lines tested | tumor growth inhibition relative to control (HCT-116 (CRC, KRAS G13D)): > 50% | tumor growth inhibition relative to control (SW-480 (CRC, KRAS G12V)): > 50% | MYC positive cells (MIA PaCa-2 xenografts): decrease in MYC | AUC(0-inf) [2, 5]: 3420 ng·h/mL | Cmax [2, 5]: 125 ng/mL | AUC(0-t) ([2]; 75 mg, Day 1, daily dosing continuously, mean, read-out: AUC0-24): 1730 ng·h/mL | AUC(0-t) ([2]; 75 mg, Day 1, daily dosing continuously, mean, read-out: AUC0-t): 1730 ng·h/mL | Vd/F [2, 5]: 860 L | half-life [2, 5]: 21.8 h | Tmax ([2]; 75 mg, Day 1, daily dosing continuously): 4 h | AUC(0-inf) [2, 6]: 27200 ng·h/mL | Cmax [2, 6]: 331 ng/mL | AUC(0-t) ([2]; 75 mg, Day 15, daily dosing continuously, mean, read-out: AUC0-24): 5570 ng·h/mL | AUC(0-t) ([2]; 75 mg, Day 15, daily dosing continuously, mean, read-out: AUC0-t): 5570 ng·h/mL | Vd/F [2, 6]: 982 L | half-life [2, 6]: 359 h | Tmax ([2]; 75 mg, Day 15, daily dosing continuously): 2 h | AUC(0-inf) [2, 7]: 15600 ng·h/mL | Cmax [2, 7]: 258 ng/mL | AUC(0-t) ([2]; 150 mg, Day 1, daily dosing continuously, mean, read-out: AUC0-24): 4850 ng·h/mL | AUC(0-t) ([2]; 150 mg, Day 1, daily dosing continuously, mean, read-out: AUC0-t): 4850 ng·h/mL | Vd/F [2, 7]: 579 L | half-life [2, 7]: 39.6 h | Tmax ([2]; 150 mg, Day 1, daily dosing continuously): 6 h | Cmax ([2]; 150 mg, Day 15, daily dosing continuously, mean): 755 ng/mL | AUC(0-t) ([2]; 150 mg, Day 15, daily dosing continuously, mean, read-out: AUC0-24): 16600 ng·h/mL | AUC(0-t) ([2]; 150 mg, Day 15, daily dosing continuously, mean, read-out: AUC0-t): 16600 ng·h/mL | Tmax ([2]; 150 mg, Day 15, daily dosing continuously): 6 h | AUC(0-inf) [2, 8]: 164000 ng·h/mL | Vd/F [2, 8]: 174 L | half-life [2, 8]: 132 h | AUC(0-inf) [2, 9]: 16400 ng·h/mL | Cmax [2, 9]: 472 ng/mL | AUC(0-t) ([2]; 250 mg, Day 1, daily dosing continuously, mean, read-out: AUC0-24): 6110 ng·h/mL | AUC(0-t) ([2]; 250 mg, Day 1, daily dosing continuously, mean, read-out: AUC0-t): 6110 ng·h/mL | Vd/F [2, 9]: 766 L | half-life [2, 9]: 34.4 h | Tmax ([2]; 250 mg, Day 1, daily dosing continuously): 4 h | AUC(0-inf) [2, 10]: 54500 ng·h/mL | Cmax [2, 10]: 1050 ng/mL | AUC(0-t) ([2]; 250 mg, Day 15, daily dosing continuously, mean, read-out: AUC0-24): 18500 ng·h/mL | AUC(0-t) ([2]; 250 mg, Day 15, daily dosing continuously, mean, read-out: AUC0-t): 18500 ng·h/mL | Vd/F [2, 10]: 259 L | half-life [2, 10]: 38.8 h | Tmax ([2]; 250 mg, Day 15, daily dosing continuously): 4 h | AUC(0-inf) [2, 11]: 134000 ng·h/mL | Cmax [2, 11]: 623 ng/mL | AUC(0-t) ([2]; 350 mg, Day 1, daily dosing continuously, mean, read-out: AUC0-24): 10400 ng·h/mL | AUC(0-t) ([2]; 350 mg, Day 1, daily dosing continuously, mean, read-out: AUC0-t): 10400 ng·h/mL | Vd/F [2, 11]: 155 L | half-life [2, 11]: 129 h | Tmax ([2]; 350 mg, Day 1, daily dosing continuously): 6 h | AUC(0-inf) [2, 12]: 164000 ng·h/mL | Cmax [2, 12]: 1490 ng/mL | AUC(0-t) ([2]; 350 mg, Day 15, daily dosing continuously, mean, read-out: AUC0-24): 26700 ng·h/mL | AUC(0-t) ([2]; 350 mg, Day 15, daily dosing continuously, mean, read-out: AUC0-t): 26700 ng·h/mL | Vd/F [2, 12]: 77.6 L | half-life [2, 12]: 72.5 h | Tmax ([2]; 350 mg, Day 15, daily dosing continuously): 4 h | AUC(0-inf) [2, 13]: 41000 ng·h/mL | Cmax [2, 13]: 1140 ng/mL | AUC(0-t) ([2]; 500 mg, Day 1, daily dosing continuously, mean, read-out: AUC0-24): 16400 ng·h/mL | AUC(0-t) ([2]; 500 mg, Day 1, daily dosing continuously, mean, read-out: AUC0-t): 16400 ng·h/mL | Vd/F [2, 13]: 72.5 L | half-life [2, 13]: 24.8 h | Tmax ([2]; 500 mg, Day 1, daily dosing continuously): 6 h | AUC(0-inf) [2, 14]: 108000 ng·h/mL | Cmax [2, 14]: 2250 ng/mL | AUC(0-t) ([2]; 500 mg, Day 15, daily dosing continuously, mean, read-out: AUC0-24): 40500 ng·h/mL | AUC(0-t) ([2]; 500 mg, Day 15, daily dosing continuously, mean, read-out: AUC0-t): 40500 ng·h/mL | Vd/F [2, 14]: 51 L | half-life [2, 14]: 42.4 h | Tmax ([2]; 500 mg, Day 15, daily dosing continuously): 2 h | synergy with Venetoclax [3]: Synergizes with Venetoclax | additional time to clear from the tissue after it clears the plasma (clinical): 3 days | time for the drug to be eliminated from the plasma after stopping (clinical): 5 to 10 days | volume of distribution (clinical): High volume of distribution | volume of distribution relative to blood volume (clinical): ~60 times | half-life (clinical; Half life): 24 to 28 h | voruciclib level in tumor at 8 hours compared to 24 hours post dosing [4]: > 5 fold | MYC protein (MYC protein in AML cells): decrease in MYC protein
